Measurements published in BindingDB's records for doi:10.7270/Q2XW4H88 (Nmmlsc, 2011).
pEC50: −log10 of the molar value.

Target: T1, Integrin alpha-L (Mus musculus, UniProt P24063)
T1 sequence (P24063 whole entry): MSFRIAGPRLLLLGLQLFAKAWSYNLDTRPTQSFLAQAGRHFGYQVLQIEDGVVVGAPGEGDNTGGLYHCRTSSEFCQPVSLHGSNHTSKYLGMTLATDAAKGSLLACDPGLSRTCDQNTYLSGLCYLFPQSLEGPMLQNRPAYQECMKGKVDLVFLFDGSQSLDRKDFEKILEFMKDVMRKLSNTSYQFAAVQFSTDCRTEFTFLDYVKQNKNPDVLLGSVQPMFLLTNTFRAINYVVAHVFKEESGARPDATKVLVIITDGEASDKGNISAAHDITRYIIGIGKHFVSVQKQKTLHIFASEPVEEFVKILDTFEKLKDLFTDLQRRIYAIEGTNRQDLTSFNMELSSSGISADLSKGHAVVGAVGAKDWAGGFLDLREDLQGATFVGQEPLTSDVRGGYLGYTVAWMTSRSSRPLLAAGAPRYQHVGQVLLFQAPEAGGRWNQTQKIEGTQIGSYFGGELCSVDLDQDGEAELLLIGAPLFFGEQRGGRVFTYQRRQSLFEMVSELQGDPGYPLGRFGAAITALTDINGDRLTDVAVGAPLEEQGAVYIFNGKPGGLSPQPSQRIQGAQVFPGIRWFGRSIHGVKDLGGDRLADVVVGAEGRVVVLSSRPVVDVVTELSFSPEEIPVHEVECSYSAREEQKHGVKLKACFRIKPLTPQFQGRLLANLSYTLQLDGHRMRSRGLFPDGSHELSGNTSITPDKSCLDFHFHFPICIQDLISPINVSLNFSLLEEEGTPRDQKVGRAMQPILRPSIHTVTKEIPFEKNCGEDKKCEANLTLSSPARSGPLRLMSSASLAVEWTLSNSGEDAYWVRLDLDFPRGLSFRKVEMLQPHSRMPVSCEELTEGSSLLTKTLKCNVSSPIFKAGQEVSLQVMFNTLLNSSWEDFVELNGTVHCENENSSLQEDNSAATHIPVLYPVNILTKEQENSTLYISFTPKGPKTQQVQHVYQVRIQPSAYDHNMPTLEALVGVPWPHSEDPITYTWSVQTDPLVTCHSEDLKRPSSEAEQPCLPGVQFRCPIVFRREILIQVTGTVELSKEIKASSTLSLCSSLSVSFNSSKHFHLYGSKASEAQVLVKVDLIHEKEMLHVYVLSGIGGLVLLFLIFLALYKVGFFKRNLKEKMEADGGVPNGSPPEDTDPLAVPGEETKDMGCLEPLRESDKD
Assay: modulators of CD8 T cell-vesicle binding, dose response, powder samples, mouse 2C CD8+ cells (AID 504565)

pEC50: 5.04
SMILES: O=C(c1ccc(-n2c(O)c3c(c2O)CC(Cl)=CC3)cc1)N1CCCCC1 [5-chloro-2-[4-[oxo(1-piperidinyl)methyl]phenyl]-3a,4,7,7a-tetrahydroisoindole-1,3-dione]
